Values belong to the compound of their own block, whether it stands above or below them.
How the values were obtained:
[1] = target: T. canadensis GGPP synthase (Taxus canadensis, UniProt Q9ZPM3); experiment: Kinetic evaluation of recombinant GGPP synthase (standard prenyltransferase assay, double reciprocal plots); format: biochemical; details: for relative velocities of the reaction with allylic co-substrates: co-substrate at 12.5 and 25 mM, IPP and Mg^2+ at saturation
Protocol: The reaction was quenched by the addition of 300 mil of methanol:conc. HCl (4:1, v/v), and the allylic diphosphate products were solvolyzed (50, 51) upon further incubation at 42° C. for 20 min. The resulting solvolysis products were extracted twice with 1 ml pentane, and were either analyzed by liquid scintillation counting (in toluene:ethanol (7:3, v/v) containing 0.4% Omnifluor (DuPont NEN); ^14 C counting efficiency=96.0%) or concentrated on ice under a gentle stream of Ar to […] for further analysis.

GGPP synthase proteins = target: T1, GGPP synthase proteins (Taxus canadensis, UniProt Q9ZPM3); experiment: Physical properties of GGPP synthase proteins isolated from various Taxus species (Table 1); format: biochemical, T. canadensis; T. brevifolia; T. cuspidata and T. baccata
T1 construct: values reportedly equal those of recombinant truncated (mature) T. canadensis enzyme

[2] = test system: T. canadensis suspension cell cultures; experiment: Methyl jasmonate induction of suspension cell cultures: paclitaxel in medium and cell mass; format: cell-based
Protocol: Suspension cell cultures were treated with methyl jasmonate 7 d after subculture and harvested at 8, 12, 24, 48 or 168 h after elicitation, or immediately before induction. During this 7 d induction period, the wet cell mass increased by about 10% and the paclitaxel concentration in the medium (where the majority of the taxoids accumulate) rose from 2.5 mg/l to 32 mg/I, with the greatest increase occurring after 48 h. The concentration of paclitaxel was measured by calibrated HPLC with UV detection as described in Hezari et al, Arch. Biochem. Biophys., 337:185-190 (1997).

GGPP synthase mRNA = experiment: RNA-blot analysis over the time course of methyl jasmonate induction; format: cell-based, T. canadensis; details: at 8 h; elevated through at least 48 h
Protocol: (§1) Total RNA was isolated from T. canadensis suspension cell cultures using the method set forth in Example 1. Equivalent amounts of RNA […] from cells that had been harvested 8, 12, 24, 48, and 168 h after methyl jasmonate induction, as well as RNA isolated from non-induced cells (0 h), were separated by electrophoresis on a formaldehyde-denaturing agarose gel, along with RNA size standards (Promega Corporation, Madison, Wis.). The separated RNA was blotted to nylon membrane by capillary action and then fixed by UV irradiation. Radiolabeled probes corresponding to the full length GGPP synthase coding region (nucleotide 308 to nucleotide 1489 of the nucleic acid sequence set forth in SEQ ID NO:1), and to an internal fragment (nucleotides 173 to 1875 inclusive) of the taxadiene synthase cDNA reported in Wildung, M. R. and Croteau, R. (1996) J. Biol. […] The blot was incubated sequentially with each probe for 16 h at 65° C., then washed twice with 2×SSC at room temperature, and then thrice with 0.5×SSC at 65° C. The blot was imaged using a Bio-Rad GS-525 Molecular Imager® System and Molecular Analyst version 2.1 software.

taxadiene synthase mRNA = experiment: as above; format: cell-based, T. canadensis; details: at 8 h; elevated through at least 48 h
Protocol: as §1

GGPP synthase = experiment: Enzyme activity in cell culture extracts after methyl jasmonate induction; format: cell-based, T. canadensis; details: crude extracts, 0-168 h after induction (FIG. 5)
Protocol: (§2) The same T. canadensis cell cultures used for RNA blot analysis were also used to determine the relative activities of GGPP synthase and taxadiene synthase over the course of methyl jasmonate induction of paclitaxel biosynthesis. […] Particulate material and cellular debris were removed from the homogenates by centrifugation, first at 3000 g, then at 31,000 g, for 20 min at 4° C. Protein concentration in the supernatant used as the enzyme source was estimated by the method of Bradford (Bradford, M. M. (1976) Anal. Biochem. 72:24814 254). GGPP synthase activity was determined by the standard prenyltransferase assay described in Example 4, except that 100 μl of crude extract (150 μg protein) isolated from T. canadensis cell cultures was used as the enzyme source and the reactions were incubated for 10 min. Taxadiene synthase activity was determined by measuring the Mg^2+ -dependent conversion of [1-^3 H1 ]geranylgeranyl diphosphate (15 μM) to the olefin product as described in Hezari, M., Lewis, N. G. and Croteau, R. (1995) Arch. Biochem. Biophys., 322:437-444; […]., Gibson, D. M. and Croteau, R. (1997) Arch. Biochem. Biophys., 337:185-190. In this assay, 500 μl of the crude extract (750 μg protein) was incubated at 3 1° C. for 1 h.

taxadiene synthase = experiment: as above; format: cell-based, T. canadensis; details: crude extracts, 0-168 h after induction (FIG. 5)
Protocol: as §2

T. canadensis GGPP synthase, sequence (Q9ZPM3 99-393): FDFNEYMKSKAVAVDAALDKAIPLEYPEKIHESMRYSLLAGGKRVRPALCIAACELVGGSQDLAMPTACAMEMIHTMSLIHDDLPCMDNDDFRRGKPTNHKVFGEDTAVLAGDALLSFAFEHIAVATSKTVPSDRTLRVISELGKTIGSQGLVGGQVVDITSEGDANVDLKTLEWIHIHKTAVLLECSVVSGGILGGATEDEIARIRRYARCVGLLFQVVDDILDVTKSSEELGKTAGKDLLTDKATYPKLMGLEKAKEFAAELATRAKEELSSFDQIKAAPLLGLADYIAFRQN
T1 sequence (Q9ZPM3 99-393): as above

SMILES: [Mg+2] [Mg^2+]
Km ([1]; double reciprocal plotting, remaining reactants at saturation): 35 µM
Km (GGPP synthase proteins): 35 ± 3 µM

SMILES: [Mn+2] [Mn^2+]
support of catalysis as divalent metal ion cofactor [1]: did not support catalysis

SMILES: CC/C=C\CC1C(=O)CCC1CC(=O)OC (centres unmarked) [methyl jasmonate]
paclitaxel concentration in the medium ([2]; after 7 d induction period, rose from 2.5 mg/l): 32 mg/I
increase of wet cell mass ([2]; during 7 d induction period): about 10%
steady state mRNA level of GGPP synthase (GGPP synthase mRNA): rapid increase
steady state mRNA level of taxadiene synthase (taxadiene synthase mRNA): rapid increase
GGPP synthase activity level (GGPP synthase): rose steadily to 48 h
taxadiene synthase activity level (taxadiene synthase): rose steadily to 48 h

The next lines start with the values.

relative velocities of the reaction with allylic co-substrates [1]: 66%
SMILES: CC(C)=CCC/C(C)=C/CC/C(C)=C/CO[P@@](=O)(O)OP(=O)(O)O (stereo in doubt) [FPP, farnesyl diphosphate]

relative velocities of the reaction with allylic co-substrates [1]: 100%
SMILES: CC(C)=CCC/C(C)=C/COP(=O)(O)OP(=O)(O)O [GPP, geranyl diphosphate]
